Results as given in patent US20250127772A1, “SPECIFIC TETRADENTATE COPPER CHELATORS FOR THE TREATMENT OF WILSON'S DISEASE” (GUANGDONG UNIVERSITY OF TECHNOLOGY, priority 2023, published 2025).
Values joined by “and” are separate entries in the source; they are usually repeats but may differ in a detail not shown here. Equal entries are not always repeated. Where two headings read alike, the source gives them in different places.

Columns and labels:
[1] = system: homozygous toxic-milk mouse model (TX model); assay type: in vivo; details: for Cu content Brain / Cu content Feces / Cu content Kidney / Cu content Liver / Cu content Serum / Cu content Urine: mean of 6 mice ± SEM
Description: The selected drug-candidate TDMQ20 has been evaluated on the homozygous toxic-milk mouse model (TX model), a regular murine model of Wilson disease, suitable for evaluation of drug-candidates (for a review, see E. Reed et al., J. Neurochem., 146, 356-373, 2018). TX mice are bearing a naturally occurring point mutation on ATP7B resulting in a methionine changed for a valine, that causes the loss of copper transportation by this protein. C57BL/6 mice have no mutation on ATP7B and were used as control mice in the evaluation of TDMQ20. TX mice were provided by Sun Yat-Sen University (Guangzhou) and C57BL/6 mice by the Guangdong experimental animal center (Guangzhou) and all experiments were performed according to protocols approved by the Welfare Laboratory Animals Committee of the Guangdong University of Technology (approval n° GDUTXS2022083 dated on 3 Aug. 2022), in the framework of the 3 Rs principle.
[…] TX mice (WD) and 8-week-old C57BL/6 mice (Control) were used. TX mice (as WD, TDMQ-L, TDMQ-M, TDMQ-H groups, respectively) received the drug TDMQ20 by intragastric gavage twice a day for 14 consecutive days (at 0, 12.5, 25.0, 50.0 mg/kg in NaCl 0.9%). On the same schedule, C57BL/6 mice (as control group) received NaCl 0.9%. Treatment of WD mice with DPA (200 mg/kg) was used as comparison (DPA group). Six groups of 6 mice were used.
At the end of the treatment period, mice (10-week old) were placed in metabolic cages for 12 h in order to collect urine and feces. At the end of this 12 h-period, mice were anesthetized using 2.5% Avertin diluted in 0.9% NaCl at a dose of […] body weight and sacrificed. Cardiac blood was collected and left at room temperature for 30 minutes before centrifugation at 4° C. at 3000 r/min for 10 minutes to obtain serum samples. During this 30-min period, liver, kidney, brain and serum were also collected. Copper concentrations in urine and feces, serum, liver, kidney and brain were determined by inductively coupled plasma mass spectrometry (ICP-MS). Data analysis was carried out using SPSS Statistics software (version 26). Data are provided as mean values±standard error of the mean (SEM). Statistical analyses were performed using one-way ANOVA for liver, feces and urine, and by non-parametric test for serum, kidney, and brain. Differences with p>0.05 were considered as no significance (ns), * p<0.05, ** p<0.01, and *** p<0.001, n=6. Graph presentations were drawn with Prism GraphPad 8.0.2.

ceruloplasmin (CP) = experiment: Serum ceruloplasmin by TMT LC-MS/MS in treated TX mice; assay type: in vivo, mouse; details: for CP level compared with control mice: serum of TX mice
Method: (§1) In order to confirm the positive role of TDMQ20 in the treatment of TX mice, we performed proteomic experiments. Samples from three mice of each group were depicted in Table 1, The samples were treated with TMT (Tandem Mass Tag) and detected by quantitative LC-MS/MS, then the data were analyzed with ProteomeDiscoverer 2.4.1.15 (ThermoFisher Scientific). Confidence proteins were screened according to the criteria of Sequest program score greater than 0 and number of unique peptides greater than or equal to 1, and blank values were removed.
The concentration of ceruloplasmin (CP), that contains the most part of blood copper, was measured by TMT LC-MS/MS in the serum of WD mice. […] The CP level was equal (25 mg/kg) or higher (50 mg/kg) than that observed in control mice. Since the level of CP is considered as a significant parameter in the clinical control of human Wilson's disease, the reversal of the CP impairment upon treatment by TDMQ20 confirms that this drug has a very good profile as drug-candidate for the treatment of Wilson's disease.

serum DEPs = experiment: Serum differentially expressed proteins (TMT LC-MS/MS) in treated TX mice; assay type: in vivo, mouse
Method: as §1
Other differentially expressed proteins (DEPs) were screened at p<0.05 in the WD mouse group compared to the control group. […] Results are reported in Table 3 and 4 for hepatic and serum proteins, respectively.

[2] = TX mice, TDMQ20-H 50 mg/kg/day gavage 14 days
[3] = TX mice, TDMQ20-L 12.5 mg/kg/day gavage 14 days
[4] = TX mice, TDMQ20-M 25 mg/kg/day gavage 14 days
[5] = serum, 25 mg/kg/day, DEP down-regulated in WD
[6] = serum, 25 mg/kg/day, DEP up-regulated in WD
[7] = serum, 50 mg/kg/day, DEP down-regulated in WD
[8] = serum, 50 mg/kg/day, DEP up-regulated in WD

CN(C)CCNCCc1ccc2c(Cl)cc(Cl)c(N)c2n1 [TDMQ20] was tested, and the “copper content in feces versus untreated WD mice or DPA 200 mg/kg/day” value ([1]; TX mice, TDMQ20 25 or 50 mg/kg/day) was “significantly higher”, the “Cu content Brain” value [1, 2] was 3.5 ± 0.1 mg/kg and the “Cu content Feces” value [1, 2] was 142 ± 10 mg/kg. The “Cu content Kidney” value [1, 2] was 11.0 ± 1.7 mg/kg, the “Cu content Liver” value [1, 2] was 200 ± 14 mg/kg and the “Cu content Serum” value [1, 2] was 3.5 ± 0.6 mg/L. For the same compound, the “Cu content Urine” value [1, 2] was 0.98 ± 0.05 mg/L, the “Cu content Brain” value [1, 3] was 3.2 ± 0.2 mg/kg and the “Cu content Feces” value [1, 3] was 88 ± 3 mg/kg. The “Cu content Kidney” value [1, 3] was 5.5 ± 0.3 mg/kg, the “Cu content Liver” value [1, 3] was 290 ± 4 mg/kg and the “Cu content Serum” value [1, 3] was 0.63 ± 0.04 mg/L. The “Cu content Urine” value [1, 3] was 0.76 ± 0.13 mg/L, the “Cu content Brain” value [1, 4] was 3.3 ± 0.2 mg/kg and the “Cu content Feces” value [1, 4] was 129 ± 4 mg/kg. The “Cu content Kidney” value [1, 4] was 5.0 ± 0.4 mg/kg, the “Cu content Liver” value [1, 4] was 256 mg/kg and 256 ± 8 mg/kg and the “Cu content Serum” value [1, 4] was 0.83 ± 0.12 mg/L. The “Cu content Urine” value [1, 4] was 0.67 ± 0.10 mg/L, the “copper concentration in urine, concentration ratio TDMQ20-H/WD” value ([1]; TX mice, TDMQ20 at 50 mg/kg, factor versus WD mice, 50 mg/kg) was 1.8 and 1.75 and the “concentration of copper in kidney, factor versus WD mice” value ([1]; TX mice, TDMQ20 at 50 mg/kg, ratio TDMQ20-H/WD) was 1.64. For the same compound, the “copper concentration in the brain versus WD mice” value ([1]; mouse, in vivo) was “no increase of copper concentration”, the “level of CP compared to WD mice” value (ceruloplasmin (CP); TDMQ20 at 25 or 50 mg/kg) was “significantly increased” and the “CP level compared with control mice” value (ceruloplasmin (CP); TDMQ20 25 mg/kg) was “equal”. For the same compound, the “CP level compared with control mice” value (ceruloplasmin (CP); TDMQ20 50 mg/kg) was “higher”, the “serum DEPs TDMQ20-H/control ratio” value (serum DEPs; TDMQ20 50 mg/kg) was about 1 and the “serum DEPs after treatment” value (serum DEPs; TDMQ20 at 25 or 50 mg/kg) was “reversed to normal values”. For the same compound, the “TDMQ20-M/ctrl fold change: Alpha-aminoadipic semialdehyde synthase, mitochondrial (Aass)” value (serum DEPs; [5]) was 0.97, the “TDMQ20-M/ctrl fold change: Cystatin-C (Cst3)” value (serum DEPs; [5]) was 0.88 and the “TDMQ20-M/ctrl fold change: Elongation factor 1-delta (Eef1d)” value (serum DEPs; [5]) was 0.85. For the same compound, the “TDMQ20-M/ctrl fold change: GrpE protein homolog 1, mitochondrial (Grpel1)” value (serum DEPs; [5]) was 0.95, the “TDMQ20-M/ctrl fold change: Transgelin-2 (Tagln2)” value (serum DEPs; [5]) was 0.87 and the “TDMQ20-M/ctrl fold change: Ig heavy chain V region 1-72 (Ighv1-72)” value (serum DEPs; [6]) was 1.08. The “TDMQ20-M/ctrl fold change: Regucalcin (Rgn)” value (serum DEPs; [6]) was 1.06, the “TDMQ20-M/ctrl fold change: Ribonuclease 4 (Rnase4)” value (serum DEPs; [6]) was 1.10 and the “TDMQ20-M/ctrl fold change: Triokinase/FMN cyclase (Tkfc)” value (serum DEPs; [6]) was 1.07. For the same compound, the “TDMQ20-M/ctrl fold change: Tropomyosin alpha-3 chain (Tpm3)” value (serum DEPs; [6]) was 1.11, the “TDMQ20-H/ctrl fold change: Alpha-aminoadipic semialdehyde synthase, mitochondrial (Aass)” value (serum DEPs; [7]) was 0.93 and the “TDMQ20-H/ctrl fold change: Cystatin-C (Cst3)” value (serum DEPs; [7]) was 0.92. For the same compound, the “TDMQ20-H/ctrl fold change: Elongation factor 1-delta (Eef1d)” value (serum DEPs; [7]) was 0.88, the “TDMQ20-H/ctrl fold change: GrpE protein homolog 1, mitochondrial (Grpel1)” value (serum DEPs; [7]) was 1.04 and the “TDMQ20-H/ctrl fold change: Transgelin-2 (Tagln2)” value (serum DEPs; [7]) was 0.91. For the same compound, the “TDMQ20-H/ctrl fold change: Ig heavy chain V region 1-72 (Ighv1-72)” value (serum DEPs; [8]) was 1.15, the “TDMQ20-H/ctrl fold change: Regucalcin (Rgn)” value (serum DEPs; [8]) was 0.88 and the “TDMQ20-H/ctrl fold change: Ribonuclease 4 (Rnase4)” value (serum DEPs; [8]) was 1.03. For the same compound, the “TDMQ20-H/ctrl fold change: Triokinase/FMN cyclase (Tkfc)” value (serum DEPs; [8]) was 0.95 and the “TDMQ20-H/ctrl fold change: Tropomyosin alpha-3 chain (Tpm3)” value (serum DEPs; [8]) was 0.95.
